These results are taken from EPA's ToxRefDB 2.

The structures appear in SMILES notation.

Data set [1] has as its system rabbit. To be noted: Prenatal developmental toxicity study, new zealand white, Oral, Gavage/Intubation, dose end: 19 GD.
Data set [2] concerns rat. To be noted: Sub-acute repeat dose toxicity; sprague dawley; Oral; Gavage/Intubation; dose end: 1 month; group: systemic; systemic / clinical chemistry / cholesterol / cholesterol + systemic / clinical chemistry / globulins / globulins + systemic / hematology / ….
Data set [3] has as its system rabbit. To be noted: Prenatal developmental toxicity study, new zealand white, Oral, Gavage/Intubation, dose end: 19 GD. This is another data set of the same source.
For data set [4], the system named is rat. To be noted: Prenatal developmental toxicity study; sprague dawley; Oral; Gavage/Intubation; dose end: 17 GD; group: maternal; reproductive / reproductive performance / estrous cycle / corpora lutea + reproductive / reproductive performance / postimplantation loss / ….
The test system of data set [5] is mouse. To be noted: Carcinogenicity; b6c3f1; Oral; Feed; dose end: 78 week; group: systemic; systemic / in life observation / body weight / body weight + systemic / pathology microscopic / liver / cytoplasmic alteration + systemic / ….
For data set [6], the system named is rat. To be noted: Carcinogenicity, fischer, Oral, Feed, dose end: 59 week, group: systemic.
Data set [7] concerns rat. To be noted: Sub-acute repeat dose toxicity; fischer; Oral; Feed; dose end: 4 week; group: systemic; systemic / in life observation / body weight / body weight gain.
Data set [8] deals with mouse. To be noted: Subchronic oral toxicity in rodents, b6c3f1, Feed, dose end: 13 week, group: systemic, systemic / in life observation / body weight / body weight gain.
Data set [9] relates to rat. To be noted: Subchronic oral toxicity in rodents, fischer, Feed, dose end: 13 week, group: systemic.
For data set [10], the system named is rat. To be noted: Prenatal developmental toxicity study, sprague dawley, Inhalation, Whole-Body, dose end: 15 GD, group: maternal.
The subject of data set [11] is rat. To be noted: Acute inhalation toxicity, fischer, Whole-Body, dose end: 2 week, group: systemic.
Data set [12] has as its system rat. To be noted: Subchronic inhalation toxicity, fischer, Whole-Body, dose end: 14 week, group: systemic.
Data set [13] relates to rat. To be noted: Prenatal developmental toxicity study, sprague dawley, Inhalation, Whole-Body, dose end: 15 GD, group: maternal. This is another data set of the same source.
Data set [14] concerns rat. To be noted: Peri- and post-natal toxicity study (Segment III), sprague dawley, Oral, Gavage/Intubation, dose end: 54 PND.
Data set [15] has as its system mouse. To be noted: Carcinogenicity; other; Oral; Water; dose end: 36 week; group: systemic; systemic / pathology microscopic / liver / adenoma + systemic / organ weight / liver / absolute + systemic / organ weight / liver / relative….
The subject of data set [16] is rat. To be noted: Chronic toxicity, fischer, Oral, Feed, dose end: 104 week, group: systemic.
The test system of data set [17] is rat. To be noted: Developmental neurotoxicity study; sprague dawley; Oral; Feed; dose end: 48 PND; group: cannot be grouped; developmental / developmental landmark / eye opening / eye opening + reproductive / offspring survival early / litter size / litter size + ….
The subject of data set [18] is rat. To be noted: Developmental neurotoxicity study; sprague dawley; Oral; Gavage/Intubation; dose end: 125 PND; group: cannot be grouped; systemic / in life observation / body weight / offspring (pup) weight.
Data set [19] relates to mouse. To be noted: Carcinogenicity; b6c3f1; Oral; Feed; dose end: 78 week; group: systemic; systemic / in life observation / body weight / body weight.
Setting [20] is: group: developmental, developmental / developmental malformation / bone / domed head + developmental / developmental malformation / brain / hydrocephaly + ….
[21] abbreviates: group: maternal, systemic / in life observation / clinical signs / discharge on cageboard + systemic / in life observation / food consumption / food ….
[22] abbreviates: group: developmental, developmental / developmental malformation / bone / domed head + developmental / developmental malformation / bone / fused + developmental….
[23] abbreviates: group: maternal, systemic / in life observation / body weight / body weight gain + systemic / in life observation / clinical signs / defecation + systemic / ….
The mark [24] stands for this setting: systemic / in life observation / body weight / body weight.
Setting [25] is: systemic / in life observation / body weight / body weight gain + systemic / pathology microscopic / bone marrow / depletion + systemic / ….
Where [26] appears, read: systemic / in life observation / body weight / body weight gain + systemic / pathology microscopic / bone marrow / hyperplasia + systemic / ….
Setting [27] is: systemic / in life observation / body weight / body weight + systemic / in life observation / body weight / body weight gain + systemic / in….
Setting [28] is: systemic / in life observation / body weight / body weight + systemic / in life observation / clinical signs / body temperature + systemic….
Setting [29] is: systemic / pathology microscopic / nose / hyperplasia + systemic / pathology microscopic / nose / hypertrophy + systemic / pathology ….
[30] abbreviates: group: developmental, developmental / developmental landmark / vaginal opening / vaginal opening + developmental / developmental landmark / preputial separation….
Where [31] appears, read: group: parental, systemic / in life observation / clinical signs / ataxia + systemic / in life observation / clinical signs / prostration + systemic / organ ….
Where [32] appears, read: group: parental, systemic / organ weight / adrenal gland / absolute + systemic / organ weight / liver / absolute.
[33] abbreviates: systemic / organ weight / liver / relative to body weight + systemic / pathology gross / liver / discolored + systemic / pathology gross / ….

As a reminder, the LOAEL is the lowest tested level that showed an adverse finding. The NOAEL is the highest dose or exposure tested at which no adverse effect was seen. Regarding `CC(=O)NC1(c2cccc(F)c2)CCN(CC[C@@]2(c3ccc(Cl)c(Cl)c3)CN(c3ccccc3)C(=O)CO2)CC1.O=C(O)CCC(=O)O`, the LEL in the data set with rabbit [1] (setting [20]) turned out to be 1000 mg/kg/day; with rabbit [1] (setting [21]), 1000 mg/kg/day; in the data set with rat [2] it was 200 mg/kg/day; with rabbit [3] (setting [22]) it was 1000 mg/kg/day; with rabbit [3] (setting [23]), 1000 mg/kg/day; with rat [4], 500 mg/kg/day. Further, the lowest-observed-adverse-effect level (LOAEL) in the data set on rabbit [1] (setting [20]) is 1000 mg/kg/day; in the data set with rabbit [1] (setting [21]), 1000 mg/kg/day; in the data set with rat [2], 200 mg/kg/day; in the data set on rabbit [3] (setting [22]), 1000 mg/kg/day; in the data set with rabbit [3] (setting [23]) it was 1000 mg/kg/day; in the data set with rat [4], more than 1500 mg/kg/day. Further, the NEL in the data set on rabbit [1] (setting [20]) is 500 mg/kg/day; in the data set on rabbit [1] (setting [21]), 500 mg/kg/day; in the data set on rat [2], 30 mg/kg/day; in the data set on rabbit [3] (setting [22]), 200 mg/kg/day; in the data set with rabbit [3] (setting [23]) it was 200 mg/kg/day; in the data set on rat [4], less than 500 mg/kg/day. Further, the NOAEL in the data set on rabbit [1] (setting [20]) is 500 mg/kg/day; in the data set on rabbit [1] (setting [21]), 500 mg/kg/day; with rat [2], 30 mg/kg/day; with rabbit [3] (setting [22]), 200 mg/kg/day; in the data set with rabbit [3] (setting [23]), 200 mg/kg/day; in the data set on rat [4], not below 1500 mg/kg/day.
Take `CN(C)c1ccc(Cc2ccc(N(C)C)cc2)cc1` [4,4'-Methylenebis(N,N-dimethylaniline)]: in the data set on mouse [5], the LEL stood at 188 mg/kg/day, the LOAEL was 188 mg/kg/day, the NEL is less than 188 mg/kg/day and the NOAEL was less than 188 mg/kg/day. In the data set on rat [6] (setting [24]), the LEL came to 18.8 mg/kg/day, the lowest observed adverse effect level (LOAEL) is 37.5 mg/kg/day and the NEL is less than 18.8 mg/kg/day. The NOAEL in the data set on rat [6] (systemic / in life observation / body weight / body weight + systemic / pathology microscopic / thyroid gland / adenoma + systemic / …) stood at 18.8 mg/kg/day. For the same compound, in the data set with rat [7], the LEL stood at 7.25 mg/kg/day, the LOAEL is 34 mg/kg/day, the NEL was less than 7.25 mg/kg/day and the NOAEL was found to be 15.8 mg/kg/day.
Take `O=C1O[C@H]([C@@H](O)CO)C(O)=C1O` [L-Ascorbic acid]: in the data set with mouse [8], the LEL was 7500 mg/kg/day, the LOAEL stood at 7500 mg/kg/day, the NEL was 3750 mg/kg/day and the NOAEL amounted to 3750 mg/kg/day. Moreover, in the data set on rat [9] (setting [25]), the lowest-observed-adverse-effect level (LOAEL) is 5000 mg/kg/day and the NOAEL came to 2500 mg/kg/day. Moreover, in the data set with rat [9] (setting [26]), the LEL was determined as 1250 mg/kg/day and the NEL is less than 1250 mg/kg/day.
Take `CCN(CC)CCO` [N,N-Diethylethanolamine]: the lowest-observed-adverse-effect level (LOAEL) in the data set on rat [10] (setting [27]) is more than 200 ppm; in the data set with rat [11] (setting [28]) it was more than 300 ppm; in the data set with rat [12] (systemic / pathology microscopic / nose / hyperplasia + systemic / pathology microscopic / nose / infiltration cellular), 25 ppm; with rat [13] (setting [27]), more than 100 ppm. Moreover, the NEL in the data set on rat [10] (setting [27]) stood at 10 ppm; with rat [11] (setting [28]) it was 10 ppm; in the data set on rat [12] (setting [29]) it was 10 ppm; with rat [13] (setting [27]), 33 ppm. Also, the no-observed-adverse-effect level (NOAEL) was not below 200 ppm with rat [10] (setting [27]), not below 300 ppm in the data set with rat [11] (setting [28]), 10 ppm in the data set with rat [12] (setting [29]) and not below 100 ppm with rat [13] (setting [27]). Further, the LEL with rat [10] (systemic / in life observation / body weight / body weight gain) is 50 ppm; with rat [11] (systemic / pathology microscopic / nose / infiltration cellular + systemic / pathology microscopic / nose / metaplasia) it was 55 ppm; in the data set with rat [12] (systemic / pathology microscopic / nose / hyperplasia + systemic / pathology microscopic / nose / infiltration cellular + systemic / …) it was 25 ppm; in the data set on rat [13] (systemic / in life observation / body weight / body weight gain + systemic / in life observation / food consumption / food consumption) it was 66 ppm.
As for `CCC1(c2ccccc2)C(=O)NC(=O)NC1=O` [Phenobarbital], the NEL in the data set on rat [14] (group: developmental, developmental / developmental landmark / vaginal opening / vaginal opening) was 50 mg/kg/day; with rat [14] (setting [32]) it was less than 25 mg/kg/day; in the data set with mouse [15], less than 75 mg/kg/day; with rat [16] (setting [33]), 1.1 mg/kg/day; in the data set on rat [17] it was less than 37.5 mg/kg/day; in the data set with rat [18], less than 40 mg/kg/day. The LEL with rat [14] (setting [30]) is 100 mg/kg/day; with rat [14] (setting [32]) it was 25 mg/kg/day; in the data set on mouse [15] it was 75 mg/kg/day; in the data set with rat [16] (systemic / organ weight / liver / relative to body weight + systemic / pathology gross / liver / mass + systemic / pathology microscopic / …) it was 4.6 mg/kg/day; in the data set with rat [17], 37.5 mg/kg/day; with rat [18] it was 40 mg/kg/day. In addition, the LOAEL with rat [14] (setting [30]) is more than 100 mg/kg/day; in the data set on rat [14] (setting [31]) it was more than 100 mg/kg/day; in the data set on mouse [15] it was more than 75 mg/kg/day; with rat [16] (setting [33]), more than 19 mg/kg/day; in the data set with rat [17] it was more than 37.5 mg/kg/day; in the data set on rat [18], more than 80 mg/kg/day. Further, the NOAEL in the data set on rat [14] (setting [30]) was not below 100 mg/kg/day; in the data set with rat [14] (setting [31]), not below 100 mg/kg/day; in the data set on mouse [15], not below 75 mg/kg/day; with rat [16] (setting [33]), not below 19 mg/kg/day; in the data set with rat [17] it was not below 37.5 mg/kg/day; with rat [18] it was not below 80 mg/kg/day.
In the data set with mouse [19], `N[C@@H](Cc1c[nH]c2ccccc12)C(=O)O` [l-Tryptophan] showed an LEL of 3750 mg/kg/day, an LOAEL of 3750 mg/kg/day, an NEL of less than 3750 mg/kg/day and an NOAEL of less than 3750 mg/kg/day.
